The record followed here is patent US5155109A, “3-piperazinosydnone imines, process for their preparation and their use” (Cassella Aktiengesellschaft, priority 1990, dated 1992).

Structures can show the parent of a compound that is named as a salt.

This experiment concerns spiral strips of the pulmonary artery of the guinea-pig. The experiment is described as follows: Relaxation of potassium-depolarised, CaCl2-contracted pulmonary artery spiral strips (modified method of Godfraind and Kaba and of Schuman et al.). The conditions noted are these: for IC50: Cavia porcellus, 40 mmol/l potassium depolarised, contraction induced by 0.5 mmol/l CaCl2, cumulative addition in 1/2 log 10 steps, average of 4 to 6 vessel strips, read-out: IC50 (concentration of the test substance which inhibits the contraction by 50%); for Duration of action: time needed after addition of the test substance until the starting value is obtained again. The method, then:
The pharmacological action of the compounds of the formula I was determined by a modified method of Godfraind and Kaba (Arch. Int. Pharmacodyn. Ther. 196, (Suppl) 35 to 49, 1972) and of Schuman et al. (Naunyn-Schmiedeberg,s Arch. Pharmacol. 289, 409 to 418, 1975). In this connection, spiral strips of the pulmonary artery of the guinea-pig are depolarised with 40 mmol/1 of potassium after equilibration in calcium-free Tyrode solution. An addition of 0.5 mmol/1 of CaCl2 then induces a contraction. The relaxing action of the test substance is determined by cumulative addition in 1/2 log 10 stepped concentrations. From the concentration-effect curve (abscissa: -log mol/1 of test substance, ordinate: % inhibition of the maximum contraction, average value of 4 to 6 vessel strips), the concentration of the test substance is determined which inhibits the contraction by 50% (=IC50, mol/1). The duration of action of the test substance is given by the time which is needed after the addition of the test substance until the starting value is obtained again. […] On the other hand, the similarly active compound SIN-1 is clearly surpassed by the compounds according to the invention with respect to its duration of action.

Take `CC(C)C(=O)N=c1c[n+](N2CCN(S(C)(=O)=O)CC2(C)C)[n-]o1` [CH3, drawing 12]: the IC50 is 3000 nM and the Duration of action came to 210 min.

`CC1(C)CN(S(C)(=O)=O)CCN1[n+]1cc(=N)o[n-]1.Cl` [Example 1, 3-(2,2-Dimethyl-4-methanesulphonylpiperazin-1-yl)sydnone imine hydrochloride]: the IC50 amounted to 1900 nM and the Duration of action was found to be 200 min.

Consider `Cc1ccc(S(=O)(=O)N2CCN([n+]3cc(=N)o[n-]3)C(C)(C)C2)cc1.Cl` [Example 2, 3-(2,2-Dimethyl-4-tosylpiperazin-1-yl)sydnone imine hydrochloride], for which the IC50 was 650 nM and the Duration of action turned out to be 220 min.

As for `CN(C)S(=O)(=O)N1CCN([n+]2cc(=N)o[n-]2)C(C)(C)C1` [Example 3, 3-(2,2-Dimethyl-4-dimthylaminosulphonylpiperazin-1-yl)sydnone imine hydrochloride], the IC50 came to 2500 nM and the Duration of action was determined as 200 min.

Turning to `CCOC(=O)[N-]c1cn(N2CCOCC2)n[o+]1` [Molsidomine, NEthoxycarbonyl-3-morpholinosydnone imine, reference compound], the IC50 stood at 300000 nM and the Duration of action is given as 100 min.

On to `Cl.N=c1c[n+](N2CCOCC2)[n-]o1` [SIN-1, 3Morpholinosydnone imine hydrochloride, reference compound], for which the IC50 came out at 1000 nM and the Duration of action was determined as 80 min.
